# In US11524048B2, “HMGB1 antagonist treatment of severe sepsis” (THE FEINSTEIN INSTITUTES FOR MEDICAL RESEARCH, priority 2019, dated 2022):
# Where “and” joins values, the source holds several entries; their conditions need not be identical. Identical values can stand only once. Entries after “also recorded” stand apart in the source; their conditions may differ. Like-named read-outs stand apart in the source and are kept apart here.
# What was measured:
# [1] = up to 6 hours, versus P5779
# [2] = Pharmacokinetics after intravenous administration to rats (LC-MS)
# rats = assay: Single-dose tolerability in rats; format: in vivo; conditions: single-dose studies with rats
# [3] = tested on: CCI-induced neuropathic pain; assay: Chronic constriction injury (CCI) of the sciatic nerve neuropathic pain model in rats; format: in vivo, male Wistar rats
# Protocol: Twenty-four male Wistar rats were separated into four groups (n=6/group) for treatment as follows [please give details concerning each of the four groups regarding procedure and treatment:
# The CCI rats each received surgery. […] Mechanical and thermal sensitivity tests were also performed over time. Hargreaves Thermal Hypersensitivity test was administered to the rats as well as Von Frey mechanical hypersensitivity test.
# Rats (male Wistar, 150-180 gm, n=6/group) had CCI surgery. […] Two weeks after surgery, thermal (Hargreaves) or mechanical (von Frey) hypersensitivity was assessed. *: P<0.05 vs. PBS group.
# In this experiment, male Wistar rats (n=6/group) had CCI surgery. […] Mechanical allodynia was assessed 5 hours later. N=6-8 rats/group. *: p<0.05) vs. HMGB1 alone. Mechanical and thermal sensitivity tests were also performed over time.
# [4] = tested on: liver ischemia and reperfusion injury; assay: Warm liver ischemia and reperfusion (I/R) in mice; format: in vivo, male C57BL/6 mice
# [5] = tested on: APAP-induced liver injury; assay: APAP-induced liver injury model in mice; format: in vivo, male C57BL/6 mice
# [6] = tested on: DAMP-induced TNF secretion (CIRP, SAA, PEDF, HSP 70, HSP90, H2A), human primary macrophages; assay: DAMPs-induced TNF secretion in human macrophages; format: cell-based; conditions: 16 hours
# STZ-induced diabetes = STZ-induced diabetes in mice; format: in vivo; conditions: repetitive K883 500 μg/mouse, vs PBS
# Protocol: Mice were administered repetitive administration of […] (500 μg/mouse). […] Repetitive administration of […] was therefore shown to be beneficial in STZ-induced diabetes. […] (*: P<0.05 vs. PBS group. N=6-8 mice per group).
# [7] = tested on: liver ischemia and reperfusion injury; conditions: cited from earlier work
# [8] = tested on: PAMP-induced TNF release (LPS, PGN, AGE, Poly I:C), human macrophages; conditions: Yang 2015; cited from earlier work
# [9] = tested on: APAP-induced liver injury; conditions: cited from earlier work
# [10] = rat, in vivo
# [11] = tested on: HMGB1-induced TNF release, human primary macrophages; conditions: Yang 2015; cited from earlier work
structure (smiles),measurement,setting,value
NC(=O)N(CCC(=O)O)NC(=O)[C@H](CO)NC(=O)[C@H](CO)NC(=O)N(N)Cc1ccccc1 [K883],structural stability in mouse serum,[1],retains structural stability for a longer period of time
same,AUCss,"[2]; IV 1 mg/kg, individual rats, 1 mg/kg",3776 ng·h/mL and 3808 ng·h/mL and 3751 ng·h/mL
same,"AUCss, Mean","[2]; IV 1 mg/kg, mean of 3 rats",3778 ng·h/mL
same,half-life in serum (FIG. 23),"[2]; rat, in vivo",longer half-life in serum
same,tolerability,rats,well-tolerated
same,CCI-induced CXCL1 and TNF expression (DRGs),[3]; DRGs,reduces CCI-induced CXCL1 and TNF expression
same,CCI-induced thermal and/or mechanical hypersensitivity (neuropathy),"[3]; Hargreaves / von Frey, K883 800 μg/rat IP once a day for 3 days",improved CCI-induced thermal and mechanical hypersensitivity; also recorded: effectively reduces peripheral neuropathy; also recorded: ameliorated both mechanical and thermal hypersensitivity; also recorded: ameliorated the thermal hypersensitivity
same,"CCI-induced CXCL1, TNF and IL-1β expression (spine)",[3]; spine,"reduces CCI-induced CXCL1, TNF and IL-1β expression"
same,liver H&E staining: inflammation (neutrophil infiltration),"[4]; K883, 6 hours after reperfusion, vs vehicle control",reduced inflammation
same,protection against hepatic ischemia/reperfusion injury,[4]; mice,protected mice against hepatic ischemia/reperfusion injury
same,serum ALT,"[5]; 50 ug/mouse, vs vehicle controls",reduced serum ALT
same,liver necrosis / liver injury (H&E histology),"[5]; APAP 350 mg/kg IP, K883 50 μg/mouse IP at 2 and 7 hours post-APAP, 24 hours",reduces APAP-induced liver injury; also recorded: reduced liver necrosis
same,mice surviving the toxicity of APAP,"[5]; APAP 400 mg/kg, 50 μg/mouse IP once-a-day for 5 days from 2 hours post-APAP, 2 weeks, control group 8",14 mice out of 15
same,percent survival post-APAP,"[5]; APAP 400 mg/kg, K883 50 μg/mouse IP once-a-day 5 days, 2 weeks",improved survival outcome; also recorded: significant improvement
same,TNF secretion induced by other DAMPs,[6],is not inhibited
same,hyperglycemia,STZ-induced diabetes,delays hyperglycemia
same,insulitis,STZ-induced diabetes,reduces insulitis
same,weight gain,STZ-induced diabetes,improves weight gain
NC(=O)[C@H](CCC(=O)O)NC(=O)[C@H](CO)NC(=O)[C@H](CO)NC(=O)[C@@H](N)Cc1ccccc1 [P5779],serum levels of ALT and AST / tissue damage,"[7]; P5779 500 μg/mouse IP at time of I/R surgery, 6 hours",reduced
same,liver H&E staining: inflammation (neutrophil infiltration),"[7]; P5779, 6 hours after reperfusion, vs vehicle",reduced inflammation
same,"TNF release in macrophages stimulated by LPS, PGN, Poly I:C, CpG DNA or S100 A12",[8],not suppress TNF release
same,liver necrosis / liver injury (H&E histology),"[9]; APAP 350 mg/kg, P5779 50 or 500 μg/mouse IP at 2 and 7 hours, vs scrambled control peptide",reduced APAP-mediated liver injury; also recorded: reduced liver necrosis
same,percent survival post-APAP,"[9]; APAP 400 mg/kg, P5779 500 μg/mouse IP once a day 5 days, 2 weeks, vs scrambled control peptide",increased survival; also recorded: significantly improved
same,serum ALT,"[9]; P5779 500 ugs/mouse, comparative data",significant reductions in ALT
same,half-life in serum (FIG. 23),[10],undetectable
same,HMGB1-induced TNF release from macrophages,[11],inhibit HMGB1-induced TNF release from macrophages in a concentration-dependent manner
